Test results reported in patent US20070185078A1, “Substituted triazole derivatives as oxytocin antagonists” (priority 2004, published 2007).

Target: T1, Oxytocin Receptor (CHO-OTR/NFAT-β-Lactamase cells) (Homo sapiens, UniProt P30559)
T1 construct: expressed in transfected cells; host or cells: CHO (CHO-OTR cell line further transfected with the NFAT-β-lactamase reporter)
T1 sequence (P30559 1-389): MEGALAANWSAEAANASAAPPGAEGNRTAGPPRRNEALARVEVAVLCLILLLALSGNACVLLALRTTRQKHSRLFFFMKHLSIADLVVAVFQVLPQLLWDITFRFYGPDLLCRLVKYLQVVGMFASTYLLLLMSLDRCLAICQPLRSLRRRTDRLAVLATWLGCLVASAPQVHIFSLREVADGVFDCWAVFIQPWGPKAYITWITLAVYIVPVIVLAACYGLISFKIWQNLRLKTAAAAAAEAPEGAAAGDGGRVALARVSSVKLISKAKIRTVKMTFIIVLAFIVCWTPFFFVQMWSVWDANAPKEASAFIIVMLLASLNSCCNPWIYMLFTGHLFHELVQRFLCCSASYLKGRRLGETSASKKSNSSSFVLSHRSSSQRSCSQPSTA
Experiment: Oxytocin Receptor Beta-Lactamase Assay
Type: cell-based
Conditions: oxytocin stimulation 4 hours, read-out: oxytocin antagonist activity, expressed as a Ki value
Description: A suitable assay for determining the oxytocin antagonist activity of a compound is detailed herein below.
Oxytocin Receptor Beta-Lactamase Assay
Cells used are CHO-OTR/NFAT-β-Lactamase. The NFAT-β-lactamase expression construct was transfected into the CHO-OTR cell line and clonal populations were isolated via fluorescence activated cell sorting (FACS). An appropriate clone was selected to develop the assay. […]
Cells grown at 80-90% confluence were harvested and counted. […]
Preparation of 1 ml of 6× Loading Buffer with Enhanced Loading Protocol (this requires scale-up according to number of plates to be screened) • 12 μl of solution A (1 mM CCF4-AM in Dry DMSO) was added to 60 μl of solution B (100 mg/ml Pluronic-F127 in DMSO+0.1% Acetic Acid) and vortexed. • The resulting solution was added to 925 μl of solution C (24% w/w PEG400, 18% TR40 v/v in water). • 75 μl of solution D was added (200 mM probenecid in 200 mM NaOH). • 10 μl of 6× Loading Buffer was added to all wells and incubated for 1.5 hrs-2 hrs at room temperature in the dark. • The plates were read using an LJL Analyst, Excitation 405 nm, Emission 450 nm and 530 nm, gain optimal, lagtime 0.40 μs integration, 4 flashes, bottom reading.

**Q.** With `COC(=O)N1Cc2nc(OC)ccc2-n2c(nnc2-c2ccc(-c3ccccc3OC)cc2)C1` [Example 8] as the compound, how does the Ki read?
**A.** The Ki was 3 nM.
